Experimental findings from ChEMBL document CHEMBL5058564, “EUbOPEN Chemogenomics Library 2 (Incucyte)” (2022) are described below.

Where a SMILES comes first, the peptide text is derived from it. Bridges are numbered along the chain shown (N, C = ends). [ ]: non-standard residue; d: D form. Orn = NCCC[C@H](N)C(=O)O; Mpa = O=C(O)CCS

Holding throughout (type): toxicity, cell-based
The test system of data set [1] is Fibroblast. Put plainly: Incucyte cell viability with human fibroblast. As to conditions: 10 µM, compound concentration 10 uM.
In data set [2] the test system is HEK-293T. Put plainly: Incucyte cell viability with HEK293T. As to conditions: human, 10 µM, compound concentration 10 uM.
Data set [3] relates to U2OS. Put plainly: Incucyte cell viability with U2OS. The settings on record: human, 10 µM, compound concentration 10 uM.
The mark [4] stands for this setting: 0 h, replicate number 1, timepoint 0 hours.
Setting [5] is: 0 h, replicate number 2, timepoint 0 hours.
Where [6] appears, read: 12 h, replicate number 1, timepoint 12 hours.
[7] abbreviates: 18 h, replicate number 1, timepoint 18 hours.
Setting [8] is: 6 h, replicate number 1, timepoint 6 hours.
The mark [9] stands for this setting: 12 h, replicate number 2, timepoint 12 hours.
[10] abbreviates: 18 h, replicate number 2, timepoint 18 hours.
Setting [11] is: 24 h, replicate number 2, timepoint 24 hours.
Where [12] appears, read: 6 h, replicate number 2, timepoint 6 hours.
[13] abbreviates: 24 h, replicate number 1, timepoint 24 hours.
Also: unitless GR value; below 1 slowed growth and below 0 cell loss.

As to `CN1C[C@H](C(=O)N[C@]2(C)O[C@@]3(O)[C@@H]4CCCN4C(=O)[C@H](Cc4ccccc4)N3C2=O)C[C@@H]2c3cccc4[nH]cc(c34)C[C@H]21.CS(=O)(=O)O` [DIHYDROERGOTAMINE MESYLATE], the “Growth Rate” value in data set [1] (setting [4]) is recorded as -0.33; in data set [1] (setting [5]) it was -0.55; in data set [2] (setting [4]), -0.57; in data set [2] (setting [5]), -0.38; in data set [2] (setting [6]), 0.96; in data set [2] (setting [7]) it was 0.98. For the same compound, the “Growth Rate” value in data set [3] (setting [4]) is 0.01; in data set [3] (setting [8]), 0.44; in data set [3] (setting [7]), 0.95.

With `O=C(O)c1nc2ccccc2c2[nH]c3c(I)cccc3c12`, the “Growth Rate” value in data set [1] (setting [4]) was -0.96; in data set [1] (setting [5]), 0.92; in data set [2] (setting [4]), 0.01; in data set [2] (setting [5]), 0.84; in data set [2] (setting [9]), 0.75; in data set [2] (setting [10]), 0.78. The “Growth Rate” value in data set [3] (setting [5]) was -1; in data set [3] (setting [8]) it was 0.56; in data set [3] (setting [9]), 0.85; in data set [3] (setting [7]), 0.93; in data set [3] (setting [10]), 0.85; in data set [3] (setting [11]) it was 0.91.

As for `CCOc1ccc(C[C@H]2NC(=O)CCSSC[C@@H](C(=O)N3CCC[C@H]3C(=O)N[C@@H](CCCN)C(=O)NCC(N)=O)NC(=O)[C@H](CC(N)=O)NC(=O)[C@H]([C@@H](C)O)NC(=O)[C@H]([C@@H](C)CC)NC2=O)cc1` [ATOSIBAN] ([Mpa][dY](Et)ITNCP[Orn]G-NH2; disulfide 1-6), the “Growth Rate” value in data set [1] (setting [4]) was found to be 0.49; in data set [1] (setting [5]) it was 0.42; in data set [1] (setting [12]), 0.56; in data set [1] (setting [6]), 0.64; in data set [1] (setting [9]), 0.4; in data set [2] (setting [4]), 0.87. The “Growth Rate” value in data set [2] (setting [12]) is 0.92; in data set [2] (setting [9]), 0.83; in data set [2] (setting [10]), 0.78; in data set [2] (setting [11]), 0.7; in data set [3] (setting [5]) it was -1; in data set [3] (setting [12]) it was 0.76. The “Growth Rate” value in data set [3] (setting [9]) is 0.97; in data set [3] (setting [7]), 0.79; in data set [3] (setting [10]) it was 0.89.

Consider `CCc1ccccc1C(=O)Nc1n[nH]c2c(C)c(F)c(C3C(C#N)=C(C)N(C)C(C)=C3C#N)cc12` [BAY-3827], for which the “Growth Rate” value in data set [1] (setting [4]) is 0.51; in data set [1] (setting [5]) it was -0.4; in data set [1] (setting [8]), 0.12; in data set [1] (setting [6]), 0.64; in data set [1] (setting [7]), 0.79; in data set [1] (setting [13]), 0.56. The “Growth Rate” value was -1 in data set [2] (setting [5]); 0.43 in data set [2] (setting [8]); 0.35 in data set [2] (setting [6]); 0.5 in data set [2] (setting [7]); 0.55 in data set [2] (setting [13]); 0.74 in data set [3] (setting [5]). Moreover, in data set [3] (setting [11]), the “Growth Rate” value stood at 0.87.

On to `O=C1Nc2ccc(I)cc2/C1=C/c1cc(Br)c(O)c(Br)c1`, for which the “Growth Rate” value was -0.2 in data set [1] (setting [4]); 0.15 in data set [1] (setting [5]); -0.08 in data set [2] (setting [4]); 0.11 in data set [2] (setting [5]); 0.97 in data set [2] (setting [7]); 0.91 in data set [2] (setting [13]). The entries for the “Growth Rate” value in data set [3] (setting [5]) and in data set [3] (setting [6]) were -0.15 and 0.89, respectively.

Consider `CNC[C@H](O)c1ccc(O)c(O)c1` [EPINEPHRINE], for which the “Growth Rate” value in data set [1] (setting [4]) was 0.11; in data set [1] (setting [5]) it was -0.14; in data set [2] (setting [4]) it was 0.03; in data set [2] (setting [8]), 0.83; in data set [2] (setting [6]), 0.73; in data set [2] (setting [7]) it was 0.84. The “Growth Rate” value is 0.36 in data set [3] (setting [4]); 0.63 in data set [3] (setting [8]); 0.96 in data set [3] (setting [12]); 0.43 in data set [3] (setting [6]); 0.71 in data set [3] (setting [9]); 0.85 in data set [3] (setting [7]). Further, the “Growth Rate” value in data set [3] (setting [10]) was 0.9; in data set [3] (setting [13]), 0.86; in data set [3] (setting [11]) it was 0.94.

Take `CCS(=O)(=O)Nc1ccc(Oc2ccc(F)cc2F)c(-c2cn(C)c(=O)c3[nH]ccc23)c1` [MIVEBRESIB]: the “Growth Rate” value in data set [1] (setting [8]) is reported as -0.16; in data set [1] (setting [12]), 0.52; in data set [2] (setting [9]), 0.78; in data set [2] (setting [7]) it was 0.75; in data set [2] (setting [10]), 0.41; in data set [2] (setting [13]) it was 0.4. Also, the “Growth Rate” value in data set [2] (setting [11]) was 0.28; in data set [3] (setting [5]), -0.35; in data set [3] (setting [12]) it was 0.85; in data set [3] (setting [11]), 0.95.

For the compound `O=C(NCCN1CCC(n2c(=O)[nH]c3cc(Cl)ccc32)CC1)c1ccc(F)cc1` [HALOPEMIDE], the “Growth Rate” value was -0.01 in data set [1] (setting [8]); 0.12 in data set [1] (setting [12]); -0.23 in data set [1] (setting [6]); 0.66 in data set [1] (setting [9]); -0.17 in data set [1] (setting [7]); -0.39 in data set [1] (setting [13]). The “Growth Rate” value in data set [2] (setting [8]) is listed as -0.01; in data set [2] (setting [12]), 0.96; in data set [2] (setting [6]), 0.56; in data set [2] (setting [9]), 0.68; in data set [2] (setting [7]) it was 0.67; in data set [2] (setting [13]) it was 0.5. Also, the “Growth Rate” value is reported as 0.7 in data set [3] (setting [4]), 0.14 in data set [3] (setting [5]) and 1 in data set [3] (setting [10]).

For the compound `Cc1cnc(CNCC2(F)CCN(C(=O)c3ccc(F)c(Cl)c3)CC2)nc1`, the “Growth Rate” value in data set [1] (setting [4]) worked out at 0.31; in data set [1] (setting [5]), 0.71; in data set [1] (setting [8]), 0.38; in data set [1] (setting [6]) it was 0.81; in data set [1] (setting [9]), 0.62; in data set [1] (setting [7]), 0.86. Moreover, the “Growth Rate” value was 0.5 in data set [1] (setting [13]); 0.4 in data set [2] (setting [4]); 0.21 in data set [2] (setting [5]); 1 in data set [2] (setting [7]); 0.91 in data set [2] (setting [13]); -0.59 in data set [3] (setting [4]). Also, the “Growth Rate” value was found to be 0.21 in data set [3] (setting [5]); 0.35 in data set [3] (setting [8]); 0.86 in data set [3] (setting [12]); 0.56 in data set [3] (setting [6]); 0.96 in data set [3] (setting [9]); 0.81 in data set [3] (setting [7]). The “Growth Rate” value in data set [3] (setting [10]) was 0.78; in data set [3] (setting [13]) it was 0.79; in data set [3] (setting [11]), 0.94.

Regarding `CCCN1CCO[C@H]2c3cc(O)ccc3OC[C@@H]21.Cl`, the “Growth Rate” value is listed as 0.77 in data set [1] (setting [4]); 0.29 in data set [1] (setting [5]); 0.98 in data set [1] (setting [6]); 0.72 in data set [1] (setting [7]); 0.8 in data set [1] (setting [13]); 0.72 in data set [2] (setting [4]). In addition, the “Growth Rate” value is listed as -0.13 in data set [2] (setting [5]); 0.96 in data set [2] (setting [11]); 0.55 in data set [3] (setting [4]); 0.6 in data set [3] (setting [8]); 0.93 in data set [3] (setting [6]); 0.92 in data set [3] (setting [7]).
